Data taken from patent publication US12268694B2, “Combination pharmaceutical agents as RSV inhibitors” (Enanta Pharmaceuticals, Inc., priority 2017, dated 2025).

Columns and labels:
HEp-2 cells = assay: Cytotoxicity in parallel to the RSV-A assay (no virus), ATPlite readout; type: cell-based, human
Experimental: Following extensive parameter testing, the final assay is run as follows: HEp-2 cells are seeded into the inner 60 wells of a 96-well plate at 8,000 cells per well in a volume of 50 μL using Growth Media (DMEM without phenol red, 1% L-Glut, 1% Penn/Strep, 1% nonessential amino acids, 10% heat-inactivated FBS). 2-fold serial dilutions of control and test compounds are added to the wells in duplicate in a total volume of 25 μL. Viral stock is then added to the wells at a multiplicity of infection (MOI) of 0.1 in a volume of 25 μL, bringing the total volume of each well to 100 μL. The MOI is calculated using the PFU/mL, or TCID50 if unavailable. Each 96-well plate has a control column of 6 wells with cells and virus but no compound (negative control, max CPE), a column with cells but no compound or virus (positive control, minimum CPE), and a column with no cells or virus or compound (background plate/reagent control). The control wells with cells but no virus are given an additional 25 μL of growth media containing an equal quantity of sucrose as those wells receiving the viral stock in order to keep consistent in media and volume conditions. The outer wells of the plate are filled with 125 μL of moat media (DMEM, 1% Penn/Strep) to act as a thermal and evaporative moat around the test wells. Following a 5-day incubation period, the plates are read using ATPlite (50 μL added per well), which quantifies the amount of ATP (a measure of cell health) present in each well. Assay plates are read using the Envision luminometer. In parallel, cytotoxicity is examined on an additional 96-well plate treated in an identical manner, but substituting the 25 μL of viral stock for 25 μL of growth media. […] EC50 ranges are as follows: A <0.4 μM; B 0.4-0.8 μM; C >0.8 μM and CC50 ranges are as follows: A >50 μM; B 10-50 μM; C <10 μM.

[1] = tested on: genotype A, "Long" strain RSV; assay: RSV-A assay: CPE protection in HEp-2 cells, ATPlite readout; type: cell-based, human respiratory syncytial virus; conditions: human respiratory syncytial virus, HEp-2, read-out: Human RSV-A (“Long” strain) EC50
Outline: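 HEp-2 cells (8,000/well) with 2-fold compound dilutions in duplicate, infected with Long-strain RSV at MOI 0.1 and incubated 5 days. Cell ATP measured by ATPlite luminescence to give EC50; uninfected parallel plate gives CC50.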

| SMILES | CC50 (HEp-2 cells) | EC50 [1] |
| --- | --- | --- |
| O=C1Nc2ccccc2C(c2ccccc2)=NC1Nc1nnc(-c2cccc3ccccc23)o1 (stereo not drawn) [Example 17] | > 50000 nM | > 800 nM |
| Cc1nnc(NC2N=C(c3ccccc3)c3ccccc3NC2=O)o1 (stereo not drawn) [Example 18] | > 50000 nM | > 800 nM |
| Cc1ccc(-c2nnc(NC3N=C(c4ccccc4)c4ccccc4NC3=O)o2)s1 (stereo not drawn) [Example 19] | > 50000 nM | > 800 nM |
| O=C1Nc2ccccc2C(c2ccccc2)=NC1Nc1nnc(-c2ccc(Cl)o2)o1 (stereo not drawn) [Example 20] | > 50000 nM | > 800 nM |
| O=C1Nc2ccccc2C(c2ccccc2)=NC1Nc1nnc(C2CCOCC2)o1 (stereo not drawn) [Example 21] | > 50000 nM | > 800 nM |
| O=C1Nc2ccccc2C(c2ccccc2)=NC1Nc1nnc(Cc2ccccc2)o1 (stereo not drawn) [Example 22] | > 50000 nM | > 800 nM |
| O=C1Nc2ccccc2C(c2ccccc2)=NC1Nc1nnc(-c2ccc(F)cn2)o1 (stereo not drawn) [Example 23] | > 50000 nM | > 800 nM |
| O=C1Nc2ccccc2C(c2ccccc2)=NC1Nc1nnc(-c2ccc(C(F)(F)F)cn2)o1 (stereo not drawn) [Example 25] | > 50000 nM | > 800 nM |
| Cc1cccc(-c2nnc(NC3N=C(c4ccccc4)c4ccccc4NC3=O)o2)n1 (stereo not drawn) [Example 26] | > 50000 nM | > 800 nM |
| CS(=O)(=O)c1ccc(-c2nnc(NC3N=C(c4ccccc4)c4ccccc4NC3=O)o2)cc1 (stereo not drawn) [Example 27] | > 50000 nM | > 800 nM |
| O=C1Nc2ccccc2C(c2ccccc2)=NC1Nc1nnc(-c2ccc(C(F)(F)F)cc2)o1 (stereo not drawn) [Example 28] | > 50000 nM | > 800 nM |
| O=C1Nc2ccccc2C(c2ccccc2)=NC1Nc1nnc(-c2cccc(C(F)(F)F)c2)o1 (stereo not drawn) [Example 29] | > 50000 nM | > 800 nM |
| O=C1Nc2ccccc2C(c2ccccc2)=NC1Nc1nnc(-c2ccc(OC(F)(F)F)cc2)o1 (stereo not drawn) [Example 30] | > 50000 nM | > 800 nM |
| NS(=O)(=O)c1ccc(-c2nnc(NC3N=C(c4ccccc4)c4ccccc4NC3=O)o2)cc1 (stereo not drawn) [Example 31] | > 50000 nM | 400 to 800 nM |
| N#Cc1cc(-c2nnc(NC3N=C(c4ccccc4)c4ccccc4NC3=O)o2)ccc1F (stereo not drawn) [Example 32] | > 50000 nM | 400 to 800 nM |
| N#Cc1ccc(-c2nnc(NC3N=C(c4ccccc4)c4ccccc4NC3=O)o2)cc1F (stereo not drawn) [Example 33] | > 50000 nM | > 800 nM |
| Cc1cc(-c2nnc(NC3N=C(c4ccccc4)c4ccccc4NC3=O)o2)ccc1C#N (stereo not drawn) [Example 34] | > 50000 nM | 400 to 800 nM |
| N#Cc1cccc(-c2nnc(NC3N=C(c4ccccc4)c4ccccc4NC3=O)o2)c1 (stereo not drawn) [Example 35] | > 50000 nM | > 800 nM |
| O=C1Nc2ccccc2C(c2ccccc2)=NC1Nc1nnc(-c2ccc(-n3cccn3)cc2)o1 (stereo not drawn) [Example 36] | 10000 to 50000 nM | 400 to 800 nM |
| O=C1Nc2ccccc2C(c2ccccc2)=NC1Nc1nnc(-c2cccnc2)o1 (stereo not drawn) [Example 37] | > 50000 nM | > 800 nM |

| SMILES | CC50 (HEp-2 cells) | EC50 [1] |
| --- | --- | --- |
| N#Cc1cc(-c2nnc(NC3N=C(c4ccccc4)c4ccccc4NC3=O)o2)ccn1 (stereo not drawn) [Example 38] | > 50000 nM | > 800 nM |
| O=C1Nc2ccccc2C(c2ccccc2)=NC1Nc1nnc(-c2ccc(=O)[nH]c2)o1 (stereo not drawn) [Example 39] | > 50000 nM | > 800 nM |
| O=C1Nc2ccccc2C(c2ccccc2)=NC1Nc1nnc(-c2ccc3nc[nH]c3c2)o1 (stereo not drawn) [Example 41] | > 50000 nM | > 800 nM |
| O=C1Nc2ccccc2C(c2ccccc2)=NC1Nc1nnc(-c2cc3cccnc3s2)o1 (stereo not drawn) [Example 43] | > 50000 nM | > 800 nM |
| CN1CCc2nc(-c3nnc(NC4N=C(c5ccccc5)c5ccccc5NC4=O)o3)sc2C1 (stereo not drawn) [Example 44] | > 50000 nM | > 800 nM |
| O=C1Nc2ccccc2C(c2ccccc2)=NC1Nc1nnc(C2CCNCC2)o1 (stereo not drawn) [Example 45] | > 50000 nM | > 800 nM |
| CN1CCC(c2nnc(NC3N=C(c4ccccc4)c4ccccc4NC3=O)o2)CC1 (stereo not drawn) [Example 46] | > 50000 nM | > 800 nM |
| CC(=O)N1CCC(c2nnc(NC3N=C(c4ccccc4)c4ccccc4NC3=O)o2)CC1 (stereo not drawn) [Example 47] | > 50000 nM | > 800 nM |
| O=C1Nc2ccccc2C(c2ccccc2)=NC1Nc1nnc([C@@H]2COCCN2)o1 (stereo partly drawn) [Example 48] | > 50000 nM | > 800 nM |
| O=C1Nc2ccccc2C(c2ccccc2)=NC1Nc1nnc([C@H]2COCCN2)o1 (stereo partly drawn) [Example 49] | > 50000 nM | > 800 nM |
| O=C1Nc2ccccc2C(c2ccccc2)=NC1Nc1nnc(-c2ccc(F)cc2F)o1 (stereo not drawn) [Example 50] | > 50000 nM | > 800 nM |
| COc1ccc(-c2nnc(NC3N=C(c4ccccc4)c4ccccc4NC3=O)o2)nc1 (stereo not drawn) [Example 51] | > 50000 nM | 400 to 800 nM |
| COc1cccc(-c2nnc(NC3N=C(c4ccccc4)c4ccccc4NC3=O)o2)n1 (stereo not drawn) [Example 52] | > 50000 nM | < 400 nM |
| O=C1Nc2ccccc2C(c2ccccc2)=NC1Nc1nnc(-c2ccc(F)nc2)o1 (stereo not drawn) [Example 53] | > 50000 nM | 400 to 800 nM |
| COc1ccc(-c2nnc(NC3N=C(c4ccccc4)c4ccccc4NC3=O)o2)cn1 (stereo not drawn) [Example 54] | > 50000 nM | < 400 nM |
| O=C1Nc2ccccc2C(c2ccccc2)=NC1Nc1nnc(-c2ccnc(F)c2)o1 (stereo not drawn) [Example 55] | > 50000 nM | < 400 nM |
| COc1ccnc(-c2nnc(NC3N=C(c4ccccc4)c4ccccc4NC3=O)o2)c1 (stereo not drawn) [Example 57] | > 50000 nM | > 800 nM |
| O=C1Nc2ccccc2C(c2ccccc2)=NC1Nc1nnc(-c2cnccn2)o1 (stereo not drawn) [Example 58] | > 50000 nM | > 800 nM |
| O=C1Nc2ccccc2C(c2ccccc2)=NC1Nc1nnc(-c2ncccn2)o1 (stereo not drawn) [Example 59] | > 50000 nM | > 800 nM |
| O=C1Nc2ccccc2C(c2ccccc2)=NC1Nc1nnc(-c2cncnc2)o1 (stereo not drawn) [Example 60] | > 50000 nM | > 800 nM |

| SMILES | CC50 (HEp-2 cells) | EC50 [1] |
| --- | --- | --- |
| O=C1Nc2ccccc2C(c2ccccc2)=NC1Nc1nnc(-c2ccncc2)o1 (stereo not drawn) [Example 61] | > 50000 nM | 400 to 800 nM |
| O=C1Nc2ccccc2C(c2ccccc2)=NC1Nc1nnc(-c2cccnn2)o1 (stereo not drawn) [Example 62] | > 50000 nM | > 800 nM |
| O=C1Nc2ccccc2C(c2ccccc2)=NC1Nc1nnc(-c2ccncn2)o1 (stereo not drawn) [Example 63] | > 50000 nM | > 800 nM |
| COCc1cccc(-c2nnc(NC3N=C(c4ccccc4)c4ccccc4NC3=O)o2)n1 (stereo not drawn) [Example 64] | > 50000 nM | > 800 nM |
| Cn1nccc1-c1nnc(NC2N=C(c3ccccc3)c3ccccc3NC2=O)o1 (stereo not drawn) [Example 65] | > 50000 nM | > 800 nM |
| Cn1cc(-c2nnc(NC3N=C(c4ccccc4)c4ccccc4NC3=O)o2)cn1 (stereo not drawn) [Example 66] | > 50000 nM | 400 to 800 nM |
| Cn1ccnc1-c1nnc(NC2N=C(c3ccccc3)c3ccccc3NC2=O)o1 (stereo not drawn) [Example 67] | > 50000 nM | > 800 nM |
| Cn1cnc(-c2nnc(NC3N=C(c4ccccc4)c4ccccc4NC3=O)o2)c1 (stereo not drawn) [Example 68] | > 50000 nM | > 800 nM |
| O=C1Nc2ccccc2C(c2ccccc2)=NC1Nc1nnc(-c2nccs2)o1 (stereo not drawn) [Example 69] | > 50000 nM | > 800 nM |
| O=C1Nc2ccccc2C(c2ccccc2)=NC1Nc1nnc(-c2ncco2)o1 (stereo not drawn) [Example 70] | > 50000 nM | > 800 nM |
| Cc1ccc(-c2nnc(NC3N=C(c4ccccc4)c4ccccc4NC3=O)o2)o1 (stereo not drawn) [Example 71] | > 50000 nM | > 800 nM |
| COCc1ccc(-c2nnc(NC3N=C(c4ccccc4)c4ccccc4NC3=O)o2)o1 (stereo not drawn) [Example 72] | > 50000 nM | > 800 nM |
| CN(C)Cc1ccc(-c2nnc(NC3N=C(c4ccccc4)c4ccccc4NC3=O)o2)o1 (stereo not drawn) [Example 73] | > 50000 nM | > 800 nM |
| Cc1cc(-c2nnc(NC3N=C(c4ccccc4)c4ccccc4NC3=O)o2)on1 (stereo not drawn) [Example 74] | > 50000 nM | > 800 nM |
| O=C1Nc2ccccc2C(c2ccccc2)=NC1Nc1nnc(-c2cnco2)o1 (stereo not drawn) [Example 75] | > 50000 nM | > 800 nM |
| O=C1Nc2ccccc2C(c2ccccc2)=NC1Nc1nnc(-c2cncs2)o1 (stereo not drawn) [Example 76] | > 50000 nM | > 800 nM |
| O=C1Nc2ccccc2C(c2ccccc2)=NC1Nc1nnc(-c2cscn2)o1 (stereo not drawn) [Example 77] | > 50000 nM | 400 to 800 nM |
| O=C1Nc2ccccc2C(c2ccccc2)=NC1Nc1nnco1 (stereo not drawn) [Example 79] | > 50000 nM | > 800 nM |
| O=C1Nc2ccccc2C(c2ccccc2)=NC1Nc1nnc(-c2ccc(F)cc2)s1 (stereo not drawn) [Example 80] | > 50000 nM | > 800 nM |
| O=C1Nc2ccccc2C(c2ccccc2)=NC1Nc1nnc(-c2ccccc2)s1 (stereo not drawn) [Example 81] | > 50000 nM | > 800 nM |
